The test system of one assay is NF-κB-regulated reporter. As to the kind of experiment: NF-κB reporter induced by transfected TRAF2, MyD88, IKKβ or p65 plasmid. The assay is classed as cell-based. The conditions noted are these: HEK293T; RA-V 48 h. Here is the method:
To determine where RA-V acts in this pathway, TRAF2, MyD88, IKKβ, or p65 plasmid was transiently transfected into HEK293T cells together with the 5 × κB-lucieferase and pTK-Renilla reporters. […] Western blots were performed to investigate the effect of RA-V on NF-κB-associated proteins in HEK293T cells transfected with the TRAF2, MyD88, or IKKβ plasmid. […] Moreover, we used a computational method to predict where RA-V is likely to act in this pathway.
Fig. 3 RA-V represses NF-κB activation upstream of the IKK protein complex. a RA-V inhibited the TRAF2- and MyD88-induced expression of the NF-κB reporter in a dose-dependent manner. The indicated plasmids were transfected into HEK293T cells together with the 5 × κB-luciferase and pTK-Renilla reporters. Twenty-four hours after transfection, the cells were incubated with various concentrations of RA-V for 48 h before luciferase assays were performed. b RA-V inhibited TRAF2- and MyD88-induced p65 phosphorylation and IκBα phosphorylation in a dose-dependent manner. HEK293T cells were transfected with TRAF2, MyD88, IKKβ, or p65 for 24 h and then treated with various concentrations of RA-V for 48 h. The cell lysates were immunoblotted with the indicated antibodies. c RA-V likely exerts its inhibitory activity on the NF-κB pathway by acting on the TRAF6-TAK1–TAB1/2 complex. […]

The next assay concerns the target T1, TAK1–TAB1 interaction (Homo sapiens, UniProt O43318+Q15750).
T1 construct: expressed in transfected cells; host or cells: HEK293T
T1 sequence (O43318 1-579 isoform O43318-2): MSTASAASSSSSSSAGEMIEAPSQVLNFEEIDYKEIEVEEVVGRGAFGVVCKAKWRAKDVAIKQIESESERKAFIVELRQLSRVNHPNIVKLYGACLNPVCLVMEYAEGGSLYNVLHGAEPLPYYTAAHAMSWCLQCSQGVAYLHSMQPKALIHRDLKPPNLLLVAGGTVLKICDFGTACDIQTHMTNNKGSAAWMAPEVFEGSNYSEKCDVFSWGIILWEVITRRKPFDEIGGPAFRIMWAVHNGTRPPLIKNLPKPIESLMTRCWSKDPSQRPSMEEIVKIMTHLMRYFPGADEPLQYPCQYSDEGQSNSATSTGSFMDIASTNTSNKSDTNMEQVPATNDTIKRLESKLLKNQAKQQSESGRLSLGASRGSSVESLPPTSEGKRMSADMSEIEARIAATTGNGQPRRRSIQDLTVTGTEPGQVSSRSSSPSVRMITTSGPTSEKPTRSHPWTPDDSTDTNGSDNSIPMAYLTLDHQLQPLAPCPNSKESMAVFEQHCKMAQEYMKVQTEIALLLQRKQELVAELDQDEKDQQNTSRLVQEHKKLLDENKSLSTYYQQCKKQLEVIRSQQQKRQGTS
T1 sequence (Q15750 1-504 partner): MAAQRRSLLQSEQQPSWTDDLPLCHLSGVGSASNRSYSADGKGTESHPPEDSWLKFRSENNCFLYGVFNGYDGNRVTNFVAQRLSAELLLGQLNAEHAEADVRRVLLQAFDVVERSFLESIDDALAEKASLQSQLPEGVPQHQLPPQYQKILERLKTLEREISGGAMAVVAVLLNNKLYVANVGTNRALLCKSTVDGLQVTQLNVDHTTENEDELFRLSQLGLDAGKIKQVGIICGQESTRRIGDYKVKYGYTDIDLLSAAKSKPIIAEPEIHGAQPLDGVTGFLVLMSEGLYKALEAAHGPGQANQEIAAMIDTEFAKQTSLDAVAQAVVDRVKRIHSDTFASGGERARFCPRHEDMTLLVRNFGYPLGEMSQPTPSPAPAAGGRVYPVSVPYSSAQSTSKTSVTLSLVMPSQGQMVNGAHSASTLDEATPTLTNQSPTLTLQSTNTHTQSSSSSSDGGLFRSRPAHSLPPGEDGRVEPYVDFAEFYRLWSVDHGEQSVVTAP
The assay is described as follows: Co-immunoprecipitation of TAK1 and TAB1. The conditions noted are these: HEK293T, Flag-TAK1 and HA-TAB1; RA-V 800 nM 6 h. The assay is classed as cell-based. Here is the method:
Fig. 4 RA-V blocks the interaction between TAK1 and TAB2. a RA-V blocked the exogenous TAK1–TAB2 interaction. HEK293T cells were transfected with Flag-TAK1 and HA-TAB2 for 24 h and then incubated with various concentrations of RA-V for 6 h. […] HEK293T cells were transfected with Flag-TAK1 and HA-TRAF6 or HA-TAB1 for 24 h and then incubated with RA-V (800 nM) for 6 h. The cell lysates were immunoprecipitated with HA antibody, and immunoblots were performed with the indicated antibodies. d RA-V blocked the endogenous TAK1–TAB2 interaction. HEK293T (left) or RAW264.7 (right) cells were incubated with 800 nM RA-V for 6 h and stimulated with 10 ng/mL TNF-α for 2 h or 1 μg/mL LPS for 3 h, respectively. The cell lysates were immunoprecipitated with TAK1 antibody or control IgG and then immunoblotted with the indicated antibodies. Each experiment was repeated at least three times
The cell lysates were prepared using radioimmunoprecipitation (RIPA) buffer containing 50 mM Tris-HCl pH 7.4, 150 mM NaCl, 1 mM ethylenediaminetetraacetic acid, 1% Triton X-100, 0.5% deoxycholate, and 0.1% sodium dodecyl sulfate, to which protease inhibitors (Roche) were added. The lysates were incubated with the indicated antibodies before adding 20 μL of Protein A/G agarose for 2 h. After four washes with the same buffer, the immunoprecipitates were boiled in 2 × SDS loading buffer.

For the substance RA-V, in the assay on NF-κB-regulated reporter, the “NF-κB-regulated reporter expression in cells transfected with IKKβ or p65” value is reported as “no effect” and the “NF-κB-regulated reporter expression in cells transfected with TRAF2 or MyD88” value is “dose-dependently suppressed”. The “TAK1–TAB1 interaction” value at TAK1–TAB1 interaction was “does not disrupt”.

The record behind these values is PMC6006164, “Natural cyclopeptide RA-V inhibits the NF-κB signaling pathway by targeting TAK1” (Cell Death & Disease, 2018).
